Assay results: patent US20230285310A1, “COMPOSITIONS FOR THE DELIVERY OF PAYLOAD MOLECULES TO AIRWAY EPITHELIUM” (ModernaTX, Inc., priority 2020, published 2023)
Counter-ions that a name gives are not always drawn.

Key:
respiratory epithelium [1] = test: LNP protein expression in rat after single dose of mRNA-LNP by nose-only aerosol delivery (anti-V5 IHC); type: in vivo; conditions: LNP per Example 8
Description: Aerosol is generated using a vibrating mesh nebulizer and a defined inlet air flow rate. Aerosol is introduced into the rodent nose-only directed flow exposure chamber by first passing through a mixing chamber before flowing into the exposure tier. Animals are exposed to fresh aerosol at each nose port, which is then exhausted out of the system.
Animals were trained to the nose-only dosing cones for three days prior to initiation of the study. On study day, animals were placed into the dosing cones that were then attached to the aerosol exposure chamber for designated exposure times of 60, 120 or 240 minutes per group for lung doses of 0.4, 0.6 and 1.1 mpk. Animals were monitored continuously throughout the entire exposure and subsequently for any observable adverse reactions. Aerosol concentration (mRNA) and aerodynamic particle size distribution were monitored at the dosing port before and after each dosing occasion to evaluate achieved dose levels and respirable aerosol particle size targets (1-4 μm for rat) respectively.
Trachea, lungs and for the aerosol study nasal cavities, nasopharynx and larynx are collected for analysis. Lungs are inflated with 10% NBF fixative and trachea tied off to maintain inflation. Lungs are removed en bloc with attached trachea, bronchi and lobes. Whole lungs en bloc are fixed in 10% NBF at room temperature for at least 24 hours with a maximum of 48 hours and then removed from fixative and placed in PBS. Samples are immediately sent to be processed for paraffin 5-micron sections and H&E staining.
For the aerosol study, nasal cavities, nasopharynx and larynx were also collected in addition to trachea and lungs.
IHC was performed on FFPE sections using the Leica Bond RX autostainer. NPI-Luc protein expression was detected by anti-V5 tag antibody at a 1:100 dilution. V5 antibody was detected with the Bond Polymer Refine Detection kit followed by hematoxylin and bluing reagent counterstain. Images were imaged at 20× magnification with the Panoramic 250 Flash III whole slide scanner. Image analysis was completed with Indica Labs HALO image analysis software. Trachea, lung and/or nasal cavity images were analyzed to capture total tracheal, bronchial or nasal epithelial cells and data expressed when appropriate as p % V5 positive epithelial cells per total epithelial cells per animal.
LNPs were prepared according to Example 8 using NPI-Luc as the mRNA construct. LNPs were delivered to rats by aerosol delivery using a nose-only aerosol dosing system. LNP protein expression in respiratory epithelium was evaluated according to sample collection and assay procedures A and B. The results are shown in Table 13c. Respiratory epithelium in the nasal cavity, trachea and bronchi were positive for protein expression after aerosol delivery of LNPs.

respiratory epithelium [2] = test: LNP protein expression in mouse after single dose of mRNA-LNP by intratracheal delivery (anti-V5 IHC); type: in vivo; conditions: intratracheal instillation, ~0.7 mpk, NPI-Luc mRNA, core with β-sitosterol for SA23, SA31
Protocol: (§1) Animals are anesthetized under isoflurane. The tongue is displaced and a small diameter cannula is inserted into the trachea (oropharyngeal route). The cannula tip is passed through the vocal chords, down the trachea so that the tip is very near, but not touching, the carina. Upon placement, 50 μL (mouse) or 200 μL (rat) of formulation is infused into the lungs. After 30 seconds upright, animals are released into a recovery cage and returned to their respective cages once recovered. Trachea, lungs and for the aerosol study nasal cavities, nasopharynx and larynx are collected for analysis. Lungs are inflated with 10% NBF fixative and trachea tied off to maintain inflation. Lungs are removed en bloc with attached trachea, bronchi and lobes. Whole lungs en bloc are fixed in 10% NBF at room temperature for at least 24 hours with a maximum of 48 hours and then removed from fixative and placed in PBS. Samples are immediately sent to be processed for paraffin 5-micron sections and H&E staining. IHC was performed on FFPE sections using the Leica Bond RX autostainer. […] Images were imaged at 20× magnification with the Panoramic 250 Flash III whole slide scanner. Image analysis was completed with Indica Labs HALO image analysis software. […] LNPs were prepared according to Example 2 using NPI-Luc as the mRNA construct. LNPs were delivered to mice by intratracheal instillation for a dose of ˜0.7 mpk. LNP protein expression in respiratory epithelium was evaluated according to sample collection and assay procedures A and B. The results are shown in Table 13a.

respiratory epithelium [3] = test: LNP protein expression in rat after single dose of mRNA-LNP by intratracheal delivery (anti-V5 IHC); type: in vivo; conditions: intratracheal instillation, ~1.2 mpk, NPI-Luc mRNA, core with β-sitosterol for SA23
Protocol: as §1, with “LNPs were delivered to mice by intratracheal instillation for a dose of ˜0.7 mpk.” left out, “13b.” for “13a.”

HeLa cells = test: Protein expression assay in HeLa cells (One-Glo luciferase, NPI-Luc mRNA); type: cell-based, human; conditions: 5 h, no serum, 4 wells, sterol amine post-added to LNP core Compound 18, DSPC, Cholesterol plus DMG-PEG 2K (SA3, SA11, SA24, SA26, SA39, SA32), plus Compound 428 (SA4, SA6, SA10, SA16), or plus β-sitosterol and DMG-PEG 2K (SA23, SA29, SA30, SA31)
Protocol: To evaluate protein expression In Vitro, HeLa cells from ATCC.org (ATCC CCL-2) are used. The cells are cultured in complete Minimum Essential Medium (MEM) and are plated in 96 well Cell Carrier Ultra plate with PDL coated surface (PerkinElmer) prior to running an experiment.
LNPs encapsulating NPI-Luc mRNA were dosed with MEM media in the absence of serum. LNP transfected cell were incubated for 5 h post LNP transfection, the cells were imaged live using Opera Phoenix spinning disk confocal microscope (PerkinElmer). Cells were detected using DAPI (405 nm channel), and image analysis was performed in Harmony 4.9, to quantify the number of cells. After imaging the cells were processed with One-Glo Luciferase assay (Promega) to quantify protein expression. Results were reported in relative luminescence units (RLU) normalized to cells counts.
LNPs were prepared according to Example 2 using NPI-Luc as the mRNA construct. NPI-Luc is a dual read reporter made by adding a 5xV5 tag and a C-myc nuclear localization sequence at the N-terminus of Firefly Luciferase to enhance the signal to noise ratio. Protein expression can be detected using OneGLo assays with luminescence readout or by immunofluorescence with anti-V5 antibodies. Protein expression was evaluated according to the procedure outlined in Example 7. The LNPs are dosed in 4 wells and the average response was reported. For the HeLa assay the luminescence read (RLU) were normalized to cell counts.

[4] = Rat Bronchi (left and right lung)

Compound | Average % V5 positive cells/total cells (respiratory epithelium [2]; Mouse Bronchi (left lung)) | Average % V5 positive cells/total cells (respiratory epithelium [2]; Mouse Trachea) | Average % V5 positive cells/total cells (respiratory epithelium [3]; [4]) | Average % V5 positive cells/total cells (respiratory epithelium [3]; Rat Trachea) | Average protein expression per cell (RLU per cell) (HeLa cells) | also measured
CC(C)CCC[C@@H](C)[C@H]1CC[C@H]2[C@@H]3CC=C4C[C@@H](OC(=O)N(CCCN)CCCCNCCCN)CC[C@]4(C)[C@H]3CC[C@]12C [SA3, (3S,8S,9S,10R,13R,14S,17R)-10,13-dimethyl-17-((R)-6-methylheptan-2-yl)-2,3,4,7,8,9,10,11,12,13,14,15,16,17-tetradecahydro-1H-cyclopenta[a]phenanthren-3-yl (3-aminopropyl)(4-((3-aminopropyl)amino)butyl)carbamate, trihydrochloride salt] | 9.33% | 40.7% | 4.95% | 2.97% |  | Average % V5 positive cells/total cells (respiratory epithelium [1]; Rat Bronchi (left and right lung), lung dose 0.4 mpk): 0.13%; Average % V5 positive cells/total cells (respiratory epithelium [1]; Rat Bronchi (left and right lung), lung dose 0.6 mpk): 0.13%; Average % V5 positive cells/total cells (respiratory epithelium [1]; Rat Bronchi (left and right lung), lung dose 1.1 mpk): 0.46%; Average % V5 positive cells/total cells (respiratory epithelium [1]; Rat Nasal Cavity, lung dose 0.4 mpk): 0.64%; Average % V5 positive cells/total cells (respiratory epithelium [1]; Rat Nasal Cavity, lung dose 0.6 mpk): 1.20%; Average % V5 positive cells/total cells (respiratory epithelium [1]; Rat Nasal Cavity, lung dose 1.1 mpk): 2.84%; Average % V5 positive cells/total cells (respiratory epithelium [1]; Rat Trachea, lung dose 0.4 mpk): 0.29%; Average % V5 positive cells/total cells (respiratory epithelium [1]; Rat Trachea, lung dose 0.6 mpk): 0.16%; Average % V5 positive cells/total cells (respiratory epithelium [1]; Rat Trachea, lung dose 1.1 mpk): 0.65%
CC(C)CCC[C@@H](C)[C@H]1CC[C@H]2[C@@H]3CC=C4C[C@@H](OC(=O)NCCNC(=N)N)CC[C@]4(C)[C@H]3CC[C@]12C [SA23, (3S,8S,9S,10R,13R,14S,17R)-10,13-dimethyl-17-((R)-6-methylheptan-2-yl)-2,3,4,7,8,9,10,11,12,13,14,15,16,17-tetradecahydro-1H-cyclopenta[a]phenanthren-3-yl (2-guanidinoethyl)carbamate, hydrochloride salt] | 0.98% | 0.8% | 1.38% | 0.83% | 868.8 RLU per cell | 
CC(C)CCC[C@@H](C)[C@H]1CC[C@H]2[C@@H]3CC=C4C[C@@H](OC(=O)CCC(=O)N(CCCN)CCCCN)CC[C@]4(C)[C@H]3CC[C@]12C [SA31, (3S,8S,9S,10R,13R,14S,17R)-10,13-Dimethyl-17-((R)-6-methylheptan-2-yl)-2,3,4,7,8,9,10,11,12,13,14,15,16,17-tetradecahydro-1H-cyclopenta[a]phenanthren-3-yl 4-((4-aminobutyl)(3-aminopropyl)amino)-4-oxobutanoate dihydrochloride] | 10.52% | 27.07% |  |  | 643.6 RLU per cell | 
CC(C)CCC[C@@H](C)[C@H]1CC[C@H]2[C@@H]3CC=C4C[C@@H](OC(=O)CC5CN6CCC5CC6)CC[C@]4(C)[C@H]3CC[C@]12C (stereo partly drawn) [SA32, (3S,8S,9S,10R,13R,14S,17R)-10,13-Dimethyl-17-((R)-6-methylheptan-2-yl)-2,3,4,7,8,9,10,11,12,13,14,15,16,17-tetradecahydro-1H-cyclopenta[a]phenanthren-3-yl 2-(quinuclidin-3-yl)acetate] |  |  |  |  | 301.8 RLU per cell | 
CC(C)CCC[C@@H](C)[C@H]1CC[C@H]2[C@@H]3CC=C4C[C@@H](SSCCC(=O)N(CCCN)CCCCNCCCN)CC[C@]4(C)[C@H]3CC[C@]12C [SA39, N-(3-Aminopropyl)-N-(4-((3-aminopropyl)amino)butyl)-3-(((3S,8S,9S,10R,13R,14S,17R)-10,13-dimethyl-17-((R)-6-methylheptan-2-yl)-2,3,4,7,8,9,10,11,12,13,14,15,16,17-tetradecahydro-1H-cyclopenta[a]phenanthren-3-yl)disulfaneyl)propanamide trihydrochloride] |  |  |  |  | 201.9 RLU per cell | 
